Source: patent US7074791B2, “Pyrrolo[1,2-b]pyridazine compounds and their uses” (Pfizer Inc., priority 2002, dated 2006)

| Compound | melting point [°C] |
| --- | --- |
| CCC(CC)Nc1cc(C)nn2c(-c3ccc(Cl)cc3Cl)c(C)cc12 [Example 1, 7-(2,4-dichlorophenyl)-N-(1-ethylpropyl)-2,6-dimethylpyrrolo[1,2-b]pyridazin-4-amine] | 115 to 118 |
| COCC(COC)Nc1cc(C)nn2c(-c3ccc(Cl)cc3Cl)c(C)cc12 [Example 2, 7-(2,4-dichlorophenyl)-N-[2-methoxy-1-(methoxymethyl)ethyl]-2,6-dimethylpyrrolo[1,2-b]pyridazin-4-amine] | 154 to 155 |
